Positions of bridges follow the written chain, without caps; N, C: chain ends. Non-standard residues stand in square brackets, D forms with d. Residues, ends and D or L forms follow the SMILES beside them. *: point of attachment. Bip = N[C@@H](Cc1ccc(-c2ccccc2)cc1)C(=O)O; NMeF = CN[C@@H](Cc1ccccc1)C(=O)O; hArg = N=C(N)NCCCC[C@H](N)C(=O)O; 4Pal = N[C@@H](Cc1ccncc1)C(=O)O; dOrn = NCCC[C@@H](N)C(=O)O; Carboxymethyl = O=C(O)C*; NMeA = CN[C@@H](C)C(=O)O; Orn = NCCC[C@H](N)C(=O)O; Dab = NCC[C@H](N)C(=O)O; Sar = CNCC(=O)O
Each compound was assayed against T1, human PD-1 (Jurkat-PD-1 cells) / PE-labeled human PD-L1-Ig (Homo sapiens, UniProt Q15116) (assay: Jurkat-PD-1 Cell Binding High-Content Screening Assay (CBA); Jurkat hPD1-PDL1 assay). Details: Jurkat cell line over-expressing human PD-1; PE-labeled PD-L1-Ig 20 nM final; compound incubated 2 hours at 37° C.; read-out: Jurkat HPD1-PDL1 IC50.
T1 construct: expressed in transfected cells; host or cells: Jurkat cell line over-expressing human PD-1
T1 sequence (Q15116 25-288): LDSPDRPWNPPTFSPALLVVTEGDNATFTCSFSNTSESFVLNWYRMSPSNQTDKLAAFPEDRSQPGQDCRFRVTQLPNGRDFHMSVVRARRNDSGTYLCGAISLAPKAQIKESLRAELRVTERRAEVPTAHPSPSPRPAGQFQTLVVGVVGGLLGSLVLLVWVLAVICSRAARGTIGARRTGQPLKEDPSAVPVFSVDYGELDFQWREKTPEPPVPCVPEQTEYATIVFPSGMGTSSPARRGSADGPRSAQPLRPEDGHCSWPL
Summary of the method: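 Jurkat-hPD-1 cells; cpd 2 h, 37° C; then PE-PD-L1-Ig 20 nM final in DMEM/10% FCS; high-content imaging read-out.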

IC50 | SMILES
0.94 µM | CC(C)C[C@@H]1NC(=O)[C@H](Cc2c[nH]c3ccccc23)NC(=O)[C@H](CC(=O)O)NC(=O)[C@H](Cc2ccc(O)cc2)NC(=O)[C@H](Cc2ccccc2)NC(=O)CSC[C@@H](C(=O)N[C@@H](C)C(N)=O)NC(=O)[C@H]([C@@H](C)O)NC(=O)[C@H](CCCNC(=N)N)NC(=O)[C@H](CC(C)C)NC(=O)[C@H](CC(N)=O)NC(=O)[C@H]2CCCN2C(=O)[C@H](C)N(C)C(=O)[C@H](C(C)C)NC(=O)[C@H](Cc2ccc(-c3ccccc3)cc2)NC1=O [Example 1171] ({CH2CO}-FYDWL[Bip]V[NMeA][dP]NLRTCA-NH2; thioether N-14)
0.17 µM | CC(C)C[C@@H]1NC(=O)[C@H](Cc2c[nH]c3ccccc23)NC(=O)[C@H](CC(=O)O)NC(=O)[C@H](Cc2ccc(O)cc2)NC(=O)[C@H](CC(N)=O)NC(=O)CSC[C@@H](C(=O)N[C@@H](C)C(N)=O)NC(=O)[C@H](CO)NC(=O)[C@H](C(C)C)NC(=O)[C@H](CC(C)C)NC(=O)[C@H](CCN)NC(=O)[C@H]2CCCN2C(=O)[C@H](CCCN)NC(=O)[C@H](C(C)C)NC(=O)[C@H](Cc2ccc(-c3ccccc3)cc2)NC1=O [Example 1401] ({CH2CO}-NYDWL[Bip]V[Orn][dP][Dab]LVSCA-NH2; thioether N-14)
0.68 µM | CC(C)C[C@@H]1NC(=O)[C@H](CCCNC(=N)N)NC(=O)[C@H](Cc2ccccc2)N(C)C(=O)[C@H](C)N(C)C(=O)[C@H](CCCNC(=N)N)NC(=O)[C@H](Cc2ccc(-c3ccccc3)cc2)NC(=O)[C@H](C(C)C)NC(=O)[C@H](Cc2c[nH]c3ccccc23)NC(=O)[C@H](CC(=O)O)NC(=O)[C@H](Cc2ccc(O)cc2)NC(=O)[C@H](Cc2ccccc2)NC(=O)CSC[C@@H](C(=O)NCC(N)=O)NC(=O)[C@H](CC(=O)O)NC(=O)[C@H](C(C)C)NC1=O [Example 1333] ({CH2CO}-FYDWV[Bip]R[NMeA][NMeF]RLVDCG-NH2; thioether N-14)
0.13 µM | CC(C)C[C@@H]1NC(=O)CSC[C@@H](C(=O)NCC(N)=O)NC(=O)[C@H](CO)NC(=O)[C@H](C(C)C)NC(=O)[C@H](CC(C)C)NC(=O)[C@H](CCCNC(=N)N)NC(=O)[C@H](Cc2ccccc2)N(C)C(=O)[C@H](C)N(C)C(=O)[C@H](CCC(=O)O)NC(=O)[C@H](Cc2ccc(-c3ccccc3)cc2)NC(=O)[C@H](C(C)C)NC(=O)[C@H](Cc2c[nH]c3ccccc23)NC(=O)[C@H](CC(=O)O)NC(=O)[C@H](Cc2ccc(O)cc2)NC1=O [Example 1287] ({CH2CO}-LYDWV[Bip]E[NMeA][NMeF]RLVSCG-NH2; thioether N-14)
0.76 µM | CC(C)C[C@@H]1NC(=O)[C@H](Cc2c[nH]c3ccccc23)NC(=O)[C@H](CC(=O)O)NC(=O)[C@H](Cc2ccc(O)cc2)NC(=O)[C@H](Cc2ccccc2)NC(=O)CSC[C@@H](C(=O)N[C@@H](C)C(N)=O)NC(=O)[C@H](CO)NC(=O)[C@H](C(C)C)NC(=O)[C@H](CC(C)C)NC(=O)[C@H](CC(N)=O)NC(=O)CN(C)C(=O)[C@@H](CCCN)NC(=O)[C@H](C(C)C)NC(=O)[C@H](Cc2ccc(-c3ccccc3)cc2)NC1=O [Example 1198] ({CH2CO}-FYDWL[Bip]V[dOrn][Sar]NLVSCA-NH2; thioether N-14)
0.09 µM | CC(C)C[C@@H]1NC(=O)[C@H](Cc2c[nH]c3ccccc23)NC(=O)[C@H](CC(=O)O)NC(=O)[C@H](Cc2ccncc2)NC(=O)[C@H](Cc2ccc(OCC(=O)O)cc2)NC(=O)CSC[C@@H](C(=O)N[C@@H](C)C(N)=O)NC(=O)[C@H](CO)NC(=O)[C@H](C(C)C)NC(=O)[C@H](CC(C)C)NC(=O)[C@H](CC(N)=O)NC(=O)[C@H]2CCCN2C(=O)[C@H](C)N(C)C(=O)[C@H](C(C)C)NC(=O)[C@H](Cc2ccc(-c3ccccc3)cc2)NC1=O [Example 1435] ({CH2CO}-Y(Carboxymethyl)[4Pal]DWL[Bip]V[NMeA][dP]NLVSCA-NH2; thioether N-14)
0.44 µM | COC[C@@H]1NC(=O)[C@H](C(C)C)NC(=O)[C@H](CC(C)C)NC(=O)[C@H](CC(N)=O)NC(=O)CN(C)C(=O)[C@H](C)N(C)C(=O)[C@H](C(C)C)NC(=O)[C@H](Cc2ccc(-c3ccccc3)cc2)NC(=O)[C@H](CC(C)C)NC(=O)[C@H](Cc2c[nH]c3ccccc23)NC(=O)[C@H](CC(=O)O)NC(=O)[C@H](Cc2ccc(O)cc2)NC(=O)[C@H](Cc2ccccc2)NC(=O)CSC[C@@H](C(=O)N[C@@H](C)C(N)=O)NC1=O [Example 1123] ({CH2CO}-FYDWL[Bip]V[NMeA][Sar]NLVS(Me)CA-NH2; thioether N-14)
0.11 µM | CC(C)C[C@@H]1NC(=O)[C@H](C(C)C)NC(=O)[C@H](Cc2ccccc2)N(C)C(=O)[C@H](C)N(C)C(=O)[C@H](CCCNC(=N)N)NC(=O)[C@H](Cc2ccc(-c3ccccc3)cc2)NC(=O)[C@H](C(C)C)NC(=O)[C@H](Cc2c[nH]c3ccccc23)NC(=O)[C@H](CC(=O)O)NC(=O)[C@H](Cc2ccc(O)cc2)NC(=O)[C@H](Cc2ccccc2)NC(=O)CSC[C@@H](C(=O)NCC(N)=O)NC(=O)[C@H](CO)NC(=O)[C@H](C(C)C)NC1=O [Example 1239] ({CH2CO}-FYDWV[Bip]R[NMeA][NMeF]VLVSCG-NH2; thioether N-14)
0.07 µM | CC(C)C[C@@H]1NC(=O)[C@H](Cc2c[nH]c3ccccc23)NC(=O)[C@H](CC(=O)O)NC(=O)[C@H](Cc2ccc(O)cc2)NC(=O)[C@H](Cc2ccccc2)NC(=O)CSC[C@@H](C(=O)NCC(N)=O)NC(=O)[C@H](CO)NC(=O)[C@H](C(C)C)NC(=O)[C@H](CC(C)C)NC(=O)[C@H](CCN)NC(=O)[C@H]2CCCN2C(=O)[C@H](C)N(C)C(=O)[C@H](C(C)C)NC(=O)[C@H](Cc2ccc(-c3ccccc3)cc2)NC1=O [Example 1399] ({CH2CO}-FYDWL[Bip]V[NMeA][dP][Dab]LVSCG-NH2; thioether N-14)
0.35 µM | CC(C)C[C@@H]1NC(=O)[C@H](CC(N)=O)NC(=O)CN(C)C(=O)[C@H](C)N(C)C(=O)[C@H](C(C)C)NC(=O)[C@H](Cc2ccc(-c3ccccc3)cc2)NC(=O)[C@H](CC(C)C)NC(=O)[C@H](Cc2c[nH]c3ccccc23)NC(=O)[C@H](CC(=O)O)NC(=O)[C@H](Cc2ccc(O)cc2)NC(=O)[C@H](Cc2ccccc2)NC(=O)CSC[C@@H](C(=O)NCC(N)=O)NC(=O)[C@H](CO)NC(=O)[C@H](C)NC1=O [Example 1111] ({CH2CO}-FYDWL[Bip]V[NMeA][Sar]NLASCG-NH2; thioether N-14)
0.19 µM | CC(C)C[C@@H]1NC(=O)[C@H](CCCNC(=N)N)NC(=O)[C@H](Cc2ccccc2)N(C)C(=O)[C@H](C)N(C)C(=O)[C@H](CCCCNC(=N)N)NC(=O)[C@H](Cc2ccc(-c3ccccc3)cc2)NC(=O)[C@H](C(C)C)NC(=O)[C@H](Cc2c[nH]c3ccccc23)NC(=O)[C@H](CC(=O)O)NC(=O)[C@H](Cc2ccc(O)cc2)NC(=O)[C@H](Cc2ccccc2)NC(=O)CSC[C@@H](C(=O)NCC(N)=O)NC(=O)[C@H](CO)NC(=O)[C@H](C(C)C)NC1=O [Example 1244] ({CH2CO}-FYDWV[Bip][hArg][NMeA][NMeF]RLVSCG-NH2; thioether N-14)
0.37 µM | CC(C)C[C@@H]1NC(=O)[C@H](CCN)NC(=O)[C@H](Cc2ccccc2)N(C)C(=O)[C@H](C)N(C)C(=O)[C@H](CCC(=O)O)NC(=O)[C@H](Cc2ccc(-c3ccccc3)cc2)NC(=O)[C@H](C(C)C)NC(=O)[C@H](Cc2c[nH]c3ccccc23)NC(=O)[C@H](CC(=O)O)NC(=O)[C@H](Cc2ccc(O)cc2)NC(=O)[C@H](Cc2ccccc2)NC(=O)CSC[C@@H](C(=O)N[C@@H](CCC(=O)O)C(N)=O)NC(=O)[C@H]([C@@H](C)O)NC(=O)[C@H](C(C)C)NC1=O [Example 1343] ({CH2CO}-FYDWV[Bip]E[NMeA][NMeF][Dab]LVTCE-NH2; thioether N-14)

Reference: patent US20240360178A1, “MACROCYCLIC IMMUNOMODULATORS” (Bristol-Myers Squibb Company, priority 2021, published 2024)
